This is an account of results in patent US20220315578A1, “BRD9 BIFUNCTIONAL DEGRADERS AND THEIR METHODS OF USE” (NOVARTIS AG, priority 2019, published 2022).

The target in this assay is T1, BRD9-GFP (Homo sapiens, UniProt Q9H8M2).
T1 construct: CHYSEL (2A cis-acting hydrolase element) remnant after GFP; mCherry is split off as a separate protein (C); expressed in transfected cells; host or cells: HEK293A cells (Invitrogen R70507), lentiviral transduction with pLenti6-BRD9-GFP-CHYSEL-mCherry, blasticidin selection
T1 sequence (Q9H8M2 1-597): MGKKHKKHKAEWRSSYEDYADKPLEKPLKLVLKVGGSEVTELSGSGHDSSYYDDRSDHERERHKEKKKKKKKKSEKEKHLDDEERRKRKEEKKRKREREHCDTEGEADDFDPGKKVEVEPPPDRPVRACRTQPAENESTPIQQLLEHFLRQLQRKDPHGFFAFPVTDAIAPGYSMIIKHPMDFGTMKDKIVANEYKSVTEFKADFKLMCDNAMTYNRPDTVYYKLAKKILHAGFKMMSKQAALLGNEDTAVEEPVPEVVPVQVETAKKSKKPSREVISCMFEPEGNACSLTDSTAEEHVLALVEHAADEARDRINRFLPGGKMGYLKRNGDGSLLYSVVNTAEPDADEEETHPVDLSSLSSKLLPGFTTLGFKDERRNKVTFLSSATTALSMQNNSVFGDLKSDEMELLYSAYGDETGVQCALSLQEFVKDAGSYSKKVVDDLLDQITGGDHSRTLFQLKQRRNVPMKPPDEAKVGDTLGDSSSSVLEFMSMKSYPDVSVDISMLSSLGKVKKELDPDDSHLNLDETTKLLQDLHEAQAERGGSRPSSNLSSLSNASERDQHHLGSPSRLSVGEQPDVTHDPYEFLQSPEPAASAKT
The assay is described as follows: BRD9-GFP protein abundance flow cytometry assay in HEK293A cells. The note with it: HEK293A-BRD9-GFP-CHYSEL-mCherry cells; for BRD9 Deg Amax %: 24 h, % protein remaining at the concentration at which maximum degradation is seen; for DC50: 24 h at 37° C., 10-point 1:3 dilution, concentration at which 50% maximal degradation was observed. The format is cell-based. The gist of the method:
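HEK293A cells stably express bicistronic BRD9-GFP-CHYSEL-mCherry and received 24 h treatment at 37° C with a 10-point, 3-fold dilution series from […], in 0.1% DMSO and duplicate. Median GFP/mCherry ratio of 5,000 single cells by flow cytometry, normalized to mCherry-only cells (0%) and DMSO (100%), gave DC50 and Amax (% protein remaining).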

Turning to `CCCCn1cc(-c2cc(F)c(OC3CCN(CCC4CCN(C(=O)c5ccc(OC)c(N6CCC(=O)NC6=O)c5)CC4)CC3)c(F)c2)c2ccncc2c1=O` [Compound E6, 1-(5-(4-(2-(4-(4-(2-butyl-1-oxo-1,2-dihydro-2,7-naphthyridin-4-yl)-2,6-difluorophenoxy)piperidin-1-yl)ethyl)piperidine-1-carbonyl)-2-methoxyphenyl)dihydropyrimidine-2,4(1H,3H)-dione], the “BRD9 Deg Amax %” value turned out to be 21.29% and the DC50 is 0.009 µM.
As to `COc1cc(-c2cc(C)c(=O)n(C)c2)c(OC)cc1CN1CCC(OC2CCN(C(=O)COc3ccc(N4CCC(=O)NC4=O)cc3)CC2)CC1` [Compound A7, 1-(4-(2-(4-((1-(4-(1,5-Dimethyl-6-oxo-1,6-dihydropyridin-3-yl)-2,5-dimethoxybenzyl)piperidin-4-yl)oxy)piperidin-1-yl)-2-oxoethoxy)phenyl)dihydropyrimidine-2,4(1H,3H)-dione], the “BRD9 Deg Amax %” value is listed as 21.30% and the DC50 was found to be 0.06 µM.
The corresponding values for `COc1cc(-c2cn(C)c(=O)c3cnccc23)c(OC)cc1CN1CCC(OC2CCN(CCn3cccc(CN4CCC(=O)NC4=O)c3=O)CC2)CC1` [Compound C1, 1-((1-(2-(4-(1-(2,5-Dimethoxy-4-(2-methyl-1-oxo-1,2-dihydro-2,7-naphthyridin-4-yl)benzyl)piperidin-4-yloxy)piperidin-1-yl)ethyl)-2-oxo-1,2-dihydropyridin-3-yl)methyl)dihydropyrimidine-2,4(1H,3H)-dione] are 13.59% and 0.029 µM.
Take `COc1cc(-c2cn(C)c(=O)c3cnccc23)cc(F)c1CN1CCC(OC2CCN(CCn3cccc(CN4CCC(=O)NC4=O)c3=O)CC2)CC1` [Compound E24, 1-((1-(2-(4-((1-(2-fluoro-6-methoxy-4-(2-methyl-1-oxo-1,2-dihydro-2,7-naphthyridin-4-yl)benzyl)piperidin-4-yl)oxy)piperidin-1-yl)ethyl)-2-oxo-1,2-dihydropyridin-3-yl)methyl)dihydropyrimidine-2,4(1H,3H)-dione]: the “BRD9 Deg Amax %” value came out at 17.08% and the DC50 came out at 0.042 µM.
Take `COc1cc(-c2cn(C)c(=O)c3cnccc23)c(OC)cc1CN1CCN(CC2CCN(C(=O)c3ccc(OC)c(N4CCC(=O)NC4=O)c3)CC2)CC1` [Compound A23, 1-(5-(4-((4-(2,5-Dimethoxy-4-(2-methyl-1-oxo-1,2-dihydro-2,7-naphthyridin-4-yl)benzyl)piperazin-1-yl)methyl)piperidine-1-carbonyl)-2-methoxyphenyl)dihydropyrimidine-2,4(1H,3H)-dione]: the “BRD9 Deg Amax %” value is on record as 10.64% and the DC50 was found to be 0.016 µM.
The corresponding values for `CCCCn1cc(-c2ccc(OC3CCN(CC4CCN(C(=O)c5ccc(OC)c(N6CCC(=O)NC6=O)c5)CC4)CC3)cc2)c2ccncc2c1=O` [Compound E42, 1-(5-(4-((4-(4-(2-butyl-1-oxo-1,2-dihydro-2,7-naphthyridin-4-yl)phenoxy)piperidin-1-yl)methyl)piperidine-1-carbonyl)-2-methoxyphenyl)dihydropyrimidine-2,4(1H,3H)-dione] are 17.34% and 0.004 µM.
Take `CCCCn1cc(-c2cc(OC)c(CCN3CCC(OC4CCN(C(=O)c5ccc(OC)c(N6CCC(=O)NC6=O)c5)CC4)CC3)c(OC)c2)c2ccncc2c1=O` [Compound E50, 1-(5-(4-((1-(4-(2-butyl-1-oxo-1,2-dihydro-2,7-naphthyridin-4-yl)-2,6-dimethoxyphenethyl)-piperidin-4-yl)oxy)piperidine-1-carbonyl)-2-meth-oxyphenyl)dihydro-pyrimidine-2,4(1H,3H)-dione]: the “BRD9 Deg Amax %” value is 13.47% and the DC50 was found to be 0.008 µM.
The corresponding values for `CCCCCCn1cc(-c2cc(OC)c(CCN3CCC(OC4CCN(C(=O)c5ccc(OC)c(N6CCC(=O)NC6=O)c5)CC4)CC3)c(OC)c2)c2ccncc2c1=O` [Compound E4, 1-(5-(4-((1-(4-(2-hexyl-1-oxo-1,2-dihydro-2,7-naphthyridin-4-yl)-2,6-dimethoxy-phenethyl)piperidin-4-yl)oxy)piperidine-1-carbonyl)-2-meth-oxyphenyl)dihydro-pyrimidine-2,4(1H,3H)-dione] are 19.61% and 0.034 µM.
The corresponding values for `COc1ccc(C(=O)N2CCC(OC3CCN(C(=O)/C=C/c4c(OC)cc(-c5cn(C)c(=O)c6cnccc56)cc4OC)CC3)CC2)cc1N1CCC(=O)NC1=O` [Compound A31, (E)-1-(5-(4-((1-(3-(2,6-dimethoxy-4-(2-methyl-1-oxo-1,2-dihydro-2,7-naphthyridin-4-yl)phenyl)acryloyl)piperidin-4-yl)oxy)piperidine-1-carbonyl)-2-methoxyphenyl)dihydropyrimidine-2,4(1H,3H)-dione] are 15.11% and 0.01 µM.
The corresponding values for `COc1cc(-c2cn(C)c(=O)c3cnccc23)ccc1OC1CCN(CC2CCN(C(=O)c3ccc(Cl)c(N4CCC(=O)NC4=O)c3)CC2)CC1` [Compound A10, 1-(2-Chloro-5-(4-((4-(2-methoxy-4-(2-methyl-1-oxo-1,2-dihydro-2,7-naphthyridin-4-yl)phenoxy)piperidin-1-yl)methyl)piperidine-1-carbonyl)phenyl)dihydropyrimidine-2,4(1H,3H)-dione] are 18.93% and 0.002 µM.
Regarding `CCCCCCn1cc(-c2cc(OC)c(CN3CCC(OC4CCN(C(=O)c5ccc(OC)c(N6CCC(=O)NC6=O)c5)CC4)CC3)c(OC)c2)c2ccncc2c1=O` [Compound E40, 1-(5-(4-((1-(4-(2-Hexyl-1-oxo-1,2-dihydro-2,7-naphthyridin-4-yl)-2,6-dimethoxybenzyl)piperidin-4-yl)oxy)piperidine-1-carbonyl)-2-methoxyphenyl)dihydropyrimidine-2,4(1H,3H)-dione], the “BRD9 Deg Amax %” value was found to be 10.51% and the DC50 was 0.029 µM.

As a reminder, the DC50 is the concentration at which degradation of the target reaches its halfway point. Lower therefore signals degradation at low concentration.
